In data set [1] the test system is Mus musculus. Briefly: Induction of IFN-gamma-induced monoamine secretion in C57BL/6 mouse plasma at 100 mg/kg, sc by Luminex Multiplex assay. Format: functional, organism-based. Further details: dose 100 mg/kg.
The target of data set [2] is T1, Toll-like receptor 7 (Homo sapiens) (UniProt Q9NYK1).
T1 sequence (whole entry): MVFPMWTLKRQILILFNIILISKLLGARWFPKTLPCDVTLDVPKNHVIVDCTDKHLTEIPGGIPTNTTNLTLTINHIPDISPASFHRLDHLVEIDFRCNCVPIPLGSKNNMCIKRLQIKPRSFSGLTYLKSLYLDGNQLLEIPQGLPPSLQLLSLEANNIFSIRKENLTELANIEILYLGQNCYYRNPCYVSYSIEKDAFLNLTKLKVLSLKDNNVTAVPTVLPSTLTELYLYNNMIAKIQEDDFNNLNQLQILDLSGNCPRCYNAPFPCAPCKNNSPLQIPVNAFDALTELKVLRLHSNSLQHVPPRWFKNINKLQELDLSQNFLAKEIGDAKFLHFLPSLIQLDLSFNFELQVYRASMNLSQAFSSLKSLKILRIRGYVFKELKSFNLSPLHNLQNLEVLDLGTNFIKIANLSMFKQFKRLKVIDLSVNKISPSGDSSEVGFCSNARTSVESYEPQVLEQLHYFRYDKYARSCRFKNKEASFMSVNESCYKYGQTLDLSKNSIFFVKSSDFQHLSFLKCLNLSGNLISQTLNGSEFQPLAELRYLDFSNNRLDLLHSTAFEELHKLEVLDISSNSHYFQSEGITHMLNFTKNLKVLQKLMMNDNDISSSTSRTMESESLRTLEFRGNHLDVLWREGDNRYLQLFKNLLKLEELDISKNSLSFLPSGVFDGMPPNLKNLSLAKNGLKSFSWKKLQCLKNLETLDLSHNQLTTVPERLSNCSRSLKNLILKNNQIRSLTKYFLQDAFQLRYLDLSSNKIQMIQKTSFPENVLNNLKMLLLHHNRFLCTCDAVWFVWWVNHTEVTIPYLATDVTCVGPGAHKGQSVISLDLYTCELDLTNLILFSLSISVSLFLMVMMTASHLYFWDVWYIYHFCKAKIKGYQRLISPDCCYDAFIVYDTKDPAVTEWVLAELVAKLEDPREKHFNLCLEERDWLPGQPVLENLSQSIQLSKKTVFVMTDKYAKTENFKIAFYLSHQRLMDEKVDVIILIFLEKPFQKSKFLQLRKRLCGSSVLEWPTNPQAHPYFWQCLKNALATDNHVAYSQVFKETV
Briefly: Activation of human TLR7 expressed in HEK293 cells assessed as increase in NF-kappaB activation at 100 ug/ml by SEAP assay. Format: cell-based.

Data set [3] can be described thus: Stability in 1% human serum assessed as full length product after 10 mins. Format: ADME, cell-free. The settings on record: read-out: Stability.
The subject of data set [4] is Mus musculus. The data set is described as follows: Induction of IL10 secretion in C57BL/6 mouse plasma at 100 mg/kg, sc by Luminex Multiplex assay. In kind it is functional, organism-based. Also noted: dose 100 mg/kg.
Data set [5] has as its system Cynomolgus monkey. Briefly: Increase in CD69 expression on CD3+ lymphocytes in cynomolgus monkey at 5 mg/kg, sc after 24 hrs by flow cytometry relative to control. In kind it is functional, organism-based. Further details: dose 5 mg/kg. The settings on record: Macaca fascicularis. (Flow cytometry measures light scatter and fluorescence of single cells or particles in a stream.)

The test system of data set [6] is Mus musculus. The data set is described as follows: Induction of MCP1 secretion in C57BL/6 mouse plasma at 100 mg/kg, sc by Luminex Multiplex assay. Format: functional, organism-based. Also noted: dose 100 mg/kg.
Data set [7] deals with spleen. The data set is described as follows: Induction of chemokine secretion in C57BL/6 mouse spleen cells 100 ug/ml after 24 hrs by Luminex Multiplex assay. In kind it is functional, cell-based.
Data set [8] deals with Cynomolgus monkey. Briefly: Elevation of IP10 in cynomolgus monkey plasma at 5 mg/kg, sc after 24 hrs. In kind it is functional, organism-based. Also noted: dose 5 mg/kg. The settings on record: Macaca fascicularis.
The test system of data set [9] is Cynomolgus monkey. Briefly: Induction of immune response in cynomolgus monkey assessed as increase in number of peripheral blood neutrophils at 5 mg/kg, sc within 24 hrs. In kind it is functional, organism-based. Also noted: dose 5 mg/kg. To be noted: Macaca fascicularis.
Data set [10] has as its target T2, Toll-like receptor 8 (Homo sapiens) (UniProt Q9NR97).
T2 sequence (whole entry): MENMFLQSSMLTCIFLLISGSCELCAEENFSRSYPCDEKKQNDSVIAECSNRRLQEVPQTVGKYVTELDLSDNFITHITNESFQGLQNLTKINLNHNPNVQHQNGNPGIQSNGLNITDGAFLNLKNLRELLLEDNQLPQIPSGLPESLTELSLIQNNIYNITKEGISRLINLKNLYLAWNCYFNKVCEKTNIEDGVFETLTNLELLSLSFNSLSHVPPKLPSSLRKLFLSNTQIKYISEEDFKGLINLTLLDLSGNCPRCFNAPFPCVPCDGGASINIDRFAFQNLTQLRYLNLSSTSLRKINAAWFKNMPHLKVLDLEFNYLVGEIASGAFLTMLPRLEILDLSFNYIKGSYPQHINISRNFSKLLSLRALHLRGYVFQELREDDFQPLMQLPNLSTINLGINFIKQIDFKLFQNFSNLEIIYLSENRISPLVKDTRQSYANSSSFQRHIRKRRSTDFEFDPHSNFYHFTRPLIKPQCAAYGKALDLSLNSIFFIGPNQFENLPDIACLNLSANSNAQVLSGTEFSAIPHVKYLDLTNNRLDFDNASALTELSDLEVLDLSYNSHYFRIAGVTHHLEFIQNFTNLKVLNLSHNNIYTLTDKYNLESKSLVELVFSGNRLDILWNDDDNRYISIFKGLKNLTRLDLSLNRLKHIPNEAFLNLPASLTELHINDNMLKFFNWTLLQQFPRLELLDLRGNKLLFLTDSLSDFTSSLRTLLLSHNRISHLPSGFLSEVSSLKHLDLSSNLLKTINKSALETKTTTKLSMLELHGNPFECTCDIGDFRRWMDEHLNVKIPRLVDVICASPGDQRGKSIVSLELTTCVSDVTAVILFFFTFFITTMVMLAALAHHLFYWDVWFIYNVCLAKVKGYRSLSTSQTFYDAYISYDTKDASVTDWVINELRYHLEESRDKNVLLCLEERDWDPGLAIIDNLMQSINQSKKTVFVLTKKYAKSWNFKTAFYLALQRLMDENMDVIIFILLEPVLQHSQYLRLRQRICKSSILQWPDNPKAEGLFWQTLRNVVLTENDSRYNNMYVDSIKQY
The data set is described as follows: Activation of human TLR8 expressed in HEK293 cells assessed as increase in NF-kappaB activation at 100 ug/ml by SEAP assay. Format: cell-based.

The subject of data set [11] is Cynomolgus monkey. The data set is described as follows: Induction of immune response in cynomolgus monkey assessed as increase in number of peripheral blood monocytes at 5 mg/kg, sc within 24 hrs. Also noted: dose 5 mg/kg. The settings on record: Macaca fascicularis. In kind it is functional, organism-based.
The test system of data set [12] is Cynomolgus monkey. The data set is described as follows: Elevation of IFNalpha in cynomolgus monkey plasma at 5 mg/kg, sc after 24 hrs. The settings on record: Macaca fascicularis. Further details: dose 5 mg/kg. Format: functional, organism-based.
Data set [13] has as its system Cynomolgus monkey. The data set is described as follows: Increase in CD69 expression on CD16+ NK cells in cynomolgus monkey at 5 mg/kg, sc after 24 hrs by flow cytometry relative to control. Format: functional, organism-based. Also noted: dose 5 mg/kg. To be noted: Macaca fascicularis.
The test system of the next data set is Dendritic cell. The data set is described as follows: Induction of IFNalpha secretion in human plasmacytoid dendritic cells at 200 ug/ml after 24 hrs by Luminex Multiplex assay. Format: functional.
In data set [14] the test system is Mus musculus. Briefly: Induction of chemokine secretion in C57BL/6 mouse plasma at 100 mg/kg, sc by Luminex Multiplex assay. In kind it is functional, organism-based. Also noted: dose 100 mg/kg.
The subject of data set [15] is Mus musculus. Briefly: Induction of IP10 secretion in C57BL/6 mouse plasma at 100 mg/kg, sc by Luminex Multiplex assay. Format: functional, organism-based. Further details: dose 100 mg/kg.
Data set [16] has as its system Mus musculus. Briefly: Induction of cytokine secretion in C57BL/6 mouse plasma at 100 mg/kg, sc by Luminex Multiplex assay. In kind it is functional, organism-based. Further details: dose 100 mg/kg.
Data set [17] concerns Mus musculus. Briefly: Induction of IL12 secretion in sc dosed C57BL/6 mouse serum after 2 hrs by ELISA. Format: functional, organism-based.
The subject of data set [18] is Cynomolgus monkey. The data set is described as follows: Increase in CD69 expression on CD14+ monocytes in cynomolgus monkey at 5 mg/kg, sc after 24 hrs by flow cytometry relative to control. Format: functional, organism-based. Also noted: dose 5 mg/kg. The settings on record: Macaca fascicularis.
Data set [19] concerns spleen. Briefly: Induction of cytokine secretion in C57BL/6 mouse spleen cells at 100 ug/ml after 24 hrs by Luminex Multiplex assay. In kind it is functional, cell-based.
In data set [20] the test system is Mus musculus. The data set is described as follows: Induction of IL12 secretion in C57BL/6 mouse plasma at 100 mg/kg, sc by Luminex Multiplex assay. Format: functional, organism-based. Also noted: dose 100 mg/kg.

Activity calls are given as the source filed them. The rule behind the calls is not given here.

`Nc1ccn([C@@H]2O[C@H](COP(O)(=S)O[C@H]3[C@@H](O)[C@H](n4ccc(=O)[nH]c4=O)O[C@@H]3COP(O)(=S)O[C@H]3[C@@H](O)[C@H](n4ccc(=O)[nH]c4=O)O[C@@H]3COP(O)(=S)O[C@H]3[C@@H](O)[C@H](n4ccc(N)nc4=O)O[C@@H]3COP(O)(=S)O[C@H]3[C@@H](O)[C@H](n4ccc5c(=O)[nH]c(N)nc54)O[C@@H]3COP(O)(=S)O[C@H]3[C@@H](O)[C@H](n4ccc(=O)[nH]c4=O)O[C@@H]3COP(O)(=S)O[C@H]3[C@@H](O)[C@H](n4ccc(N)nc4=O)O[C@@H]3COP(O)(=S)O[C@H]3[C@@H](O)[C@H](n4ccc5c(=O)[nH]c(N)nc54)O[C@@H]3COP(O)(=S)O[C@H]3[C@@H](O)[C@H](n4ccc(=O)[nH]c4=O)O[C@@H]3CO)[C@@H](OP(O)(=S)OC[C@H]3O[C@@H](n4ccc(=O)[nH]c4=O)[C@H](O)[C@@H]3OP(O)(=S)OC[C@H]3O[C@@H](n4ccc5c(=O)[nH]c(N)nc54)[C@H](O)[C@@H]3OP(O)(=S)OCC(O)COP(O)(=S)O[C@H]3[C@@H](O)[C@H](n4ccc5c(=O)[nH]c(N)nc54)O[C@@H]3COP(O)(=S)O[C@H]3[C@@H](O)[C@H](n4ccc(=O)[nH]c4=O)O[C@@H]3COP(O)(=S)O[C@H]3[C@@H](O)[C@H](n4ccc(N)nc4=O)O[C@@H]3COP(O)(=S)O[C@H]3[C@@H](O)[C@H](n4ccc(=O)[nH]c4=O)O[C@@H]3COP(O)(=S)O[C@H]3[C@@H](O)[C@H](n4ccc(=O)[nH]c4=O)O[C@@H]3COP(O)(=S)O[C@H]3[C@@H](O)[C@H](n4ccc(N)nc4=O)O[C@@H]3COP(O)(=S)O[C@H]3[C@@H](O)[C@H](n4ccc5c(=O)[nH]c(N)nc54)O[C@@H]3COP(O)(=S)O[C@H]3[C@@H](O)[C@H](n4ccc(=O)[nH]c4=O)O[C@@H]3COP(O)(=S)O[C@H]3[C@@H](O)[C@H](n4ccc(N)nc4=O)O[C@@H]3COP(O)(=S)O[C@H]3[C@@H](O)[C@H](n4ccc5c(=O)[nH]c(N)nc54)O[C@@H]3COP(O)(=S)O[C@H]3[C@@H](O)[C@H](n4ccc(=O)[nH]c4=O)O[C@@H]3CO)[C@H]2O)c(=O)n1` (stereo partly specified): the outcome (in the data set on Mus musculus [1]; in [2]; in the data set with Mus musculus [4]; in the data set with Cynomolgus monkey [5]; in the data set with Mus musculus [6]; with Cynomolgus monkey [8]) was Active. Besides, the result (in the data set on Cynomolgus monkey [9]; in data set [10]; in the data set on Cynomolgus monkey [11]; in the data set on Cynomolgus monkey [12]; in the data set on Cynomolgus monkey [13]; in the data set with Dendritic cell) was Active. For the same compound, the outcome with Mus musculus [15], with Cynomolgus monkey [18] and with Mus musculus [20] was Active. The remaining at 10 min in [3] was found to be 57%. In addition, the Activity result with spleen [7], in the data set with Mus musculus [17] and with spleen [19] was “Dose-dependent effect” in each case. Moreover, the outcome in the data set on Mus musculus [14] and with Mus musculus [16] was inactive.

These data come from ChEMBL document CHEMBL1156502, “Stabilized immune modulatory RNA compounds as agonists of Toll-like receptors 7 and 8” (Proc Natl Acad Sci U S A, 2007).
